Source: article PMC9323797, “4-Substituted Thieno[3,2-d]pyrimidines as Dual-Stage Antiplasmodial Derivatives” (Pharmaceuticals, 2022)
Read-outs that look alike come from different tables or passages of the source.

Tested on: P. falciparum K1
Assay: Blood-stage antiplasmodial evaluation (SYBR Green I fluorescence, 72 h)
Type: cell-based, Plasmodium falciparum
Conditions: for EC50: read-out: P. falciparum K1 EC50; for IC50: erythrocytic stage P. falciparum K1, read-out: IC50 (activity on Pf. K1)
Protocol: A K1 culture-adapted P. falciparum strain resistant to chloroquine, pyrimethamine, and proguanil was used in an in vitro culture. It was maintained in a continuous culture, as described previously by Trager and Jensen. Cultures were maintained in fresh A+ human erythrocytes at 2.5% hematocrit in a complete medium (RPMI 1640 with 25 mM HEPES, 25 mM NaHCO3, and 10% of A+ human serum) at 37 °C under a reduced O2 atmosphere (gas mixture: 10% O2, 5% CO2, and 85% N2). Parasitemia was maintained daily between 1 and 3%. The P. falciparum drug susceptibility test was carried out by comparing quantities of DNA in treated and control cultures of parasite in human erythrocytes, according to a SYBR Green I fluorescence-based method using a 96-well fluorescence plate reader. Compounds, previously dissolved in DMSO (final concentration less than 0.5% v/v), were incubated in a total assay volume of 200 μL (RPMI, 2% hematocrit and 0.4% parasitemia) for 72 h in a humidified atmosphere (10% O2 and 5% CO2) at 37 °C, in 96-well flat bottom plates. Duplicate assays were performed for each sample. After incubation, plates were frozen at […] for 24 h. Then, the frozen plates were thawed for 1 h at 37 °C. A total of 15 μL of each sample was transferred to 96-well flat-bottom non-sterile black plates (Greiner Bio-One, Kremsmünster, Austria) already containing 15 μL of the SYBR Green I lysis buffer (2X SYBR Green I, 20 mM Tris base pH 7.5, 20 mM EDTA, 0.008% w/v saponin, 0.08% w/v Triton X-100). Negative control treated by solvents (DMSO or H2O) and positive controls (chloroquine) were added to each set of experiments. Plates were incubated for 15 min at 37 °C and then read on a TECAN Infinite F-200 spectrophotometer with excitation and emission wavelengths at 485 and 535 nm, respectively. The concentrations of compounds required to induce a 50% decrease in parasite growth (EC50 K1) were calculated from three independent experiments.

[1] = Plasmodium falciparum, K1, 72 h, asexual blood stages, drug-resistant K1 strain, 72 h incubation, mean ± SD of three independent experiments
[2] = asexual blood stages, drug-resistant K1 strain, 72 h incubation, mean ± SD of three independent experiments
[3] = Plasmodium falciparum, K1, 72 h

Compound	EC50 [1] [µM]	other results
Cc1ccc(-c2cc3nc(NC(C)(C)C)nc(Sc4ccccc4)c3s2)cc1 [Compound 9a, N-(tert-butyl)-6-(p-tolyl)-4-(phenylthio)thieno[3,2-d]pyrimidin-2-amine]	13.8 ± 1.7	–
Cc1ccc(-c2cc3nc(NC(C)(C)C)nc(-c4ccccc4)c3s2)cc1 [Compound 11c, N-(tert-butyl)-4-phenyl-6-(p-tolyl)thieno[3,2-d]pyrimidin-2-amine]	> 25	–
Cc1ccc(-c2cc3nc(NC(C)(C)C)nc(C#Cc4ccccc4)c3s2)cc1 [Compound 12a, N-tert-butyl-6-(4-methylphenyl)-4-(phenylethynyl)thieno[3,2-d]pyrimidin-2-amine]	20.1 ± 4.1	–
N-(tert-butyl)-4-(1-methylhydrazinyl)-6-(p-tolyl)-3,4-dihydrothieno[3,2-d]pyrimidin-2-amine [Compound 10b]	–	EC50 [2]: 2.2 ± 0.3 µM; IC50: ~2 µM
Cc1ccc(-c2cc3nc(NC(C)(C)C)nc(N[C@@H](C)C(=O)[O-])c3s2)cc1.O.O.O.[Na+] [Compound 10j, Sodium (S)-2-((2-(Tert-butylamino)-6-(p-tolyl)thieno[3,2-d]pyrimidin-4-yl)amino)-propanoate trihydrate]	–	EC50 [3]: > 12.5 µM; P. falciparum K1 EC50 [2]: loss of activity
Cc1ccc(-c2cc3nc(NC(C)(C)C)nc(C#CCCO)c3s2)cc1 [Compound 12c, 4-[2-tert-butylamino-6-(4-methylphenyl)thieno[3,2-d]pyrimidin-4-yl]but-3-yn-1-ol]	14.2 ± 2.8	–
Cc1ccc(-c2cc3nc(NC(C)(C)C)nc(-c4cccc(C)c4)c3s2)cc1 [Compound 11b, N-(tert-butyl)-4-(m-tolyl)-6-(p-tolyl)thieno[3,2-d]pyrimidin-2-amine]	> 31	–
CCN(CC)CCCC(C)Nc1ccnc2cc(Cl)ccc12 (stereo not shown) [Chloroquine, reference compound]	–	EC50 [3]: 0.8 ± 0.1 µM
Cc1ccc(-c2cc3nc(NC(C)(C)C)ncc3s2)cc1 [Compound 13, N-(Tert-butyl)-6-(p-tolyl)thieno[3,2-d]pyrimidin-2-amine]	26.1 ± 2.2	P. falciparum K1 EC50 [2]: inactive
Cc1ccc(-c2cc3nc(NC(C)(C)C)nc(-c4cccnc4)c3s2)cc1 [Compound 11f, N-(tert-butyl)-4-(pyridin-3-yl)-6-(p-tolyl)thieno[3,2-d]pyrimidin-2-amine]	> 10	–
Cc1ccc(-c2cc3nc(NC(C)(C)C)nc(NN)c3s2)cc1 [Compound 10i, N-(tert-butyl)-4-hydrazino-6-(p-tolyl)thieno[3,2-d]pyrimidin-2-amine]	2.2 ± 0.3	IC50 (Plasmodium falciparum): ~2 µM
Cc1ccc(-c2cc3nc(NC(C)(C)C)nc(-c4ccc(C)cc4)c3s2)cc1 [Compound 11a, N-(tert-butyl)-4,6-di-p-tolylthieno[3,2-d]pyrimidin-2-amine]	> 31	–
Cc1ccc(Sc2nc(NC(C)(C)C)nc3cc(-c4ccc(C)cc4)sc23)cc1 [Compound 9b, N-(tert-butyl)-6-(p-tolyl)-4-(p-tolylthio)thieno[3,2-d]pyrimidin-2-amine]	16.4 ± 1.9	–
Cc1ccc(-c2cc3nc(NC(C)(C)C)nc(NC(C)C)c3s2)cc1 [Compound 10e, N^2-(tert-butyl)-N^4-isopropyl-6-(p-tolyl)thieno[3,2-d]pyrimidine-2,4-diamine]	2.4 ± 1	IC50 (Plasmodium falciparum): ~2 µM
Cc1ccc(-c2cc3nc(NC(C)(C)C)nc(Nc4ccccc4)c3s2)cc1 [Compound 10h, N^2-(tert-butyl)-N^4-phenyl-6-(p-tolyl)thieno[3,2-d]pyrimidine-2,4-diamine]	2 ± 0.4	P. falciparum K1 EC50 [2]: some activity was maintained
COc1nc(NC(C)(C)C)nc2cc(-c3ccc(C)cc3)sc12 [Compound 7a, N-(tert-butyl)-4-methoxy-6-(p-tolyl)thieno[3,2-d]pyrimidin-2-amine]	7.6 ± 0.9	–
Cc1ccc(-c2cc3nc(NC(C)(C)C)nc(-c4ccncc4)c3s2)cc1 [Compound 11e, N-(tert-butyl)-4-(pyridin-4-yl)-6-(p-tolyl)thieno[3,2-d]pyrimidin-2-amine]	28.1 ± 7	–
Cc1ccc(-c2cc3nc(NC(C)(C)C)nc(Oc4ccccc4)c3s2)cc1 [Compound 8a, N-(tert-butyl)-4-phenoxy-6-(p-tolyl)thieno[3,2-d]pyrimidin-2-amine]	> 10	–
Cc1ccc(-c2cc3nc(NC(C)(C)C)nc(C#CC4CC4)c3s2)cc1 [Compound 12b, N-tert-butyl-4-(cyclopropylethynyl)-6-(4-methylphenyl)thieno[3,2-d]pyrimidin-2-amine]	15.7 ± 2.4	–
Cc1ccc(Oc2nc(NC(C)(C)C)nc3cc(-c4ccc(C)cc4)sc23)cc1 [Compound 8b, N-(tert-butyl)-6-(p-tolyl)-4-(p-tolyloxy)thieno[3,2-d]pyrimidin-2-amine]	> 10	–
Cc1ccc(-c2cc3nc(NC(C)(C)C)nc(-c4ccsc4)c3s2)cc1 [Compound 11d, N-(tert-butyl)-4-(thiophen-3-yl)-6-(p-tolyl)thieno[3,2-d]pyrimidin-2-amine]	> 25	–
CCOc1nc(NC(C)(C)C)nc2cc(-c3ccc(C)cc3)sc12 [Compound 7b, N-(tert-butyl)-4-ethoxy-6-(p-tolyl)thieno[3,2-d]pyrimidin-2-amine]	5.1 ± 1.3	–
